Laboratory results from US20240400638A1, “COMBINATION OF RELAXIN AND VASOPRESSIN ANALOGUES FOR TREATMENT OF RENAL DISORDERS OR CONDITIONS” (River 2 Renal Corp., priority 2021, published 2024).
Numbered stars: 1 amine (or outer) side, 2 acyl side, 3 side chain; on linkers, the order of the positions; unused ones are H or OH. Bridge positions count the residues as written; N and C are the ends. Square brackets hold non-standard residues; d marks the D form. Side chains are listed from the residue outwards. Peptide text beside a SMILES is read from it. * marks the point of attachment. X2 = CCCCCCCCCCCCCCCCCC(=O)N[C@@H](CCC(=O)N[C@@H](CCC(=O)N[C@@H](CCC(=O)NCCCOCCOCCOCCCNC(=O)CCC(=O)NCCCOCCOCCOCCCNC(=O)CCC(=O)NCCCOCCOCCOCCCNC(=O)CCC(=O)NCCCOCCOCCOCCCN*)C(=O)O)C(=O)O)C(=O)O; X1 = CCCCCCCCCCCCCCCC(=O)N[C@@H](CCC(=O)N[C@@H](CCC(=O)N[C@@H](CCC(=O)NCCCOCCOCCOCCCNC(=O)CCC(=O)NCCCOCCOCCOCCCNC(=O)CCC(=O)NCCCOCCOCCOCCCN*)C(=O)O)C(=O)O)C(=O)O; Suc = O=C(CCC(=O)[*:2])[*:1]; Aib = CC(C)(N)C(=O)O

How the values were obtained:
[1] = molecular target: T1, human RXFP1 (Homo sapiens, UniProt Q9HBX9); experiment: In vitro OVCAR5 cAMP assay (HTRF); format: cell-based; details: OVCAR 5 cells (cAMP); for EC50: Table 2; for Emax: maximal cAMP relative to human relaxin-2, Table 2
T1 construct: OVCAR5 cells expressing endogenous human RXFP1; endogenous in cells; host or cells: OVCAR5 cells
T1 sequence (Q9HBX9 1-757): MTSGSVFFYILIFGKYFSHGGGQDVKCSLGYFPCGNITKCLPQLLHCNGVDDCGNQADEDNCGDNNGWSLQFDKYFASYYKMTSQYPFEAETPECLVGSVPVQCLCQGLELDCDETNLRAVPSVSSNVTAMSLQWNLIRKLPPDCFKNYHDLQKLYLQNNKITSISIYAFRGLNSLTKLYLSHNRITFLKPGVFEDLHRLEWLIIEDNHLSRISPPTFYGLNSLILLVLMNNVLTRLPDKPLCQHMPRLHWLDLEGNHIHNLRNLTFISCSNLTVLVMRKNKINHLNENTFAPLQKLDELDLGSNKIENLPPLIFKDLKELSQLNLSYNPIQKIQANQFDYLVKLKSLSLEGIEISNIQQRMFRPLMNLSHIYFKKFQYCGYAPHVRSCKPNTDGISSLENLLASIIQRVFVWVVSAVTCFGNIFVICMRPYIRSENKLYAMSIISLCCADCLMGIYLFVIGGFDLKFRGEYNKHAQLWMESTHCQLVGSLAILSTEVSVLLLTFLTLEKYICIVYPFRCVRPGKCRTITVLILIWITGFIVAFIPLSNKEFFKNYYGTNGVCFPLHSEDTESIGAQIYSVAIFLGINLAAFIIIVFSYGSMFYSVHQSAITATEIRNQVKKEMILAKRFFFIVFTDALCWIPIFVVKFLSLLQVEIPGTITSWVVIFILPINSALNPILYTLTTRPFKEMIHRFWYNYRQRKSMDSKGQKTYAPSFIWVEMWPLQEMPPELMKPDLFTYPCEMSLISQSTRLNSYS
Description: OVCAR5 cells expressing endogenous human RXFP1 were used to test RXFP1 agonist properties of relaxin peptide analogues, and in particular of the peptides of sequence SEQ ID NO: 1-97.
Since RXFP1 is a Gs coupled GPCR, increases in cAMP was used as readout of RXFP1 activation.
Isobutyl methyl xanthine (IBMX) was used to inhibit phosphodiesterase activity facilitating cAMP measurements. HTRF (Homogenous Time Resolved Fluorescence) technology was used to detect cAMP due to its high sensitivity.
In summary, OVCAR5 were grown in regular medium (RPMI) containing 10% fetal calf serum (FCS) and 1% antibiotics (penicillin/streptomycin).
Before the experiments, cells were detached with accutase and incubated for 40 minutes at 37° C. with 1 mM (3-isobutyl-1-methylxanthine) IBMX.
Cells were then distributed in 384 black well plates containing increasing concentrations of the different peptides in a fix volume of medium (without FCS).
After an incubation of 30 min at 37° C. in a humid incubator in 5% CO2, the reaction was stopped by adding a fixed volume of a solution containing a lysis buffer and cAMP-D2 (cAMP labeled with the dye d2) and the anti-cAMP antibody linked to Europium and used for cAMP detection.
Readout of the experiment were performed on a fluorimeter allowing HTRF measurement. Activation curves were generated by plotting the intracellular value of cAMP versus log 10 of the compound concentration.
The 50% activation concentration (EC50) was calculated by nonlinear regression using the sigmoidal dose-response (variable slope) equation with Prism 5 software.
Emax % was determined as the maximal intracellular value of cAMP for test compound (upper limit of cAMP vs concentration curve) divided by the maximal intracellular value of cAMP for human relaxin-2 (H2-R1x) determined in the same test occasion multiplied by 100.

[2] = cited from earlier work

Row | EC50 [1] | Emax [1] | SMILES | mortality ([2]; at 3 months, patients receiving terlipressin and standard of care (e.g., albumin), Wong et al. 2021) | patients requiring discontinuation of treatment for severe side effects ([2]; human, in vivo) | patients with side effects ([2]; human, in vivo)
1 | 0.09 nM | 99% | CCCCCCCCCCCCCCCCCC(=O)N[C@@H](CCC(=O)N[C@@H](CCC(=O)N[C@@H](CCC(=O)NCCCOCCOCCOCCCNC(=O)CCC(=O)NCCCOCCOCCOCCCNC(=O)CCC(=O)NCCCOCCOCCOCCCNC(=O)CCC(=O)NCCCOCCOCCOCCCNC(=O)CCC(=O)NCCCC[C@H](NC(=O)CNC(=O)[C@H](CCC(=O)O)NC(=O)C(C)(C)NC(=O)C(C)(C)NC(=O)[C@@H](NC(=O)[C@H](CCCCNC(C)=O)NC(=O)[C@H](C)NC(=O)[C@H](CCCNC(=N)N)NC(=O)[C@@H](NC(=O)[C@H](CCCCN)NC(=O)[C@H](CCC(=O)O)NC(=O)[C@H](CCCNC(=N)N)NC(=O)CNC(=O)[C@H](CCC(=O)O)NC(=O)[C@H](CC(C)C)NC(C)=O)C(C)C)[C@@H](C)CC)C(=O)N[C@@H](CO)C(=O)N[C@H](C(=O)N[C@@H](Cc1ccccc1)C(=O)N[C@@H](CO)C(=O)NC(C)(C)C(=O)N[C@@H](CCCNC(=N)N)C(=O)N[C@@H](CCCCN)C(=O)N[C@@H](CCCCNC(C)=O)C(N)=O)[C@@H](C)O)C(=O)O)C(=O)O)C(=O)O [compound 59] (Ac-LEGREKVRAK(Ac)I[Aib][Aib]EGK([Suc-X2])STFS[Aib]RKK(Ac)-NH2) | – | – | –
2 | 0.54 nM | 95% | CCCCCCCCCCCCCCCC(=O)N[C@@H](CCC(=O)N[C@@H](CCC(=O)N[C@@H](CCC(=O)NCCCOCCOCCOCCCNC(=O)CCC(=O)NCCCOCCOCCOCCCNC(=O)CCC(=O)NCCCOCCOCCOCCCNC(=O)CCC(=O)NCCCC[C@H](NC(=O)CNC(=O)[C@H](CCC(=O)O)NC(=O)C(C)(C)NC(=O)C(C)(C)NC(=O)[C@@H](NC(=O)[C@H](CCCCNC(C)=O)NC(=O)C(C)(C)NC(=O)[C@H](CCCNC(=N)N)NC(=O)[C@@H](NC(=O)[C@H](CCCCN)NC(=O)[C@H](CCC(=O)O)NC(=O)[C@H](CCCNC(=N)N)NC(=O)CNC(=O)[C@H](CCC(=O)O)NC(=O)[C@H](CC(C)C)NC(C)=O)C(C)C)[C@@H](C)CC)C(=O)N[C@@H](CO)C(=O)N[C@H](C(=O)N[C@@H](Cc1c[nH]c2ccccc12)C(=O)N[C@@H](CO)C(=O)NC(C)(C)C(=O)N[C@@H](CCCNC(=N)N)C(=O)N[C@@H](C)C(=O)N[C@@H](CCCCNC(C)=O)C(N)=O)[C@@H](C)O)C(=O)O)C(=O)O)C(=O)O [compound 82] (Ac-LEGREKVR[Aib]K(Ac)I[Aib][Aib]EGK([Suc-X1])STWS[Aib]RAK(Ac)-NH2) | – | – | –
3 | – | – | NCCCC[C@H](NC(=O)[C@@H]1CCCN1C(=O)[C@@H]1CSSC[C@H](NC(=O)CNC(=O)CNC(=O)CN)C(=O)N[C@@H](Cc2ccc(O)cc2)C(=O)N[C@@H](Cc2ccccc2)C(=O)N[C@@H](CCC(N)=O)C(=O)N[C@@H](CC(N)=O)C(=O)N1)C(=O)NCC(N)=O [terlipressin, Terlipressin] (H-GGGCYFQNCPKG-NH2; disulfide 4-9) | 51% | up to 10% | up to 40%
